Results taken from patent US20050228180A1, “Alpha, omega-dicarboximide derivatives as useful uro-selective a1a adrenoceptor blockers” (priority 2002, published 2005).
Counter-ions that a name gives are not always drawn.

Biological target: T1, α1B adrenoceptor (spleen) (Rattus norvegicus, UniProt P15823)
T1 construct: Isolated tissues were mounted in organ bath containing Krebs Henseleit buffer; from tissue; host or cells: isolated rat spleen
T1 sequence (P15823 1-515): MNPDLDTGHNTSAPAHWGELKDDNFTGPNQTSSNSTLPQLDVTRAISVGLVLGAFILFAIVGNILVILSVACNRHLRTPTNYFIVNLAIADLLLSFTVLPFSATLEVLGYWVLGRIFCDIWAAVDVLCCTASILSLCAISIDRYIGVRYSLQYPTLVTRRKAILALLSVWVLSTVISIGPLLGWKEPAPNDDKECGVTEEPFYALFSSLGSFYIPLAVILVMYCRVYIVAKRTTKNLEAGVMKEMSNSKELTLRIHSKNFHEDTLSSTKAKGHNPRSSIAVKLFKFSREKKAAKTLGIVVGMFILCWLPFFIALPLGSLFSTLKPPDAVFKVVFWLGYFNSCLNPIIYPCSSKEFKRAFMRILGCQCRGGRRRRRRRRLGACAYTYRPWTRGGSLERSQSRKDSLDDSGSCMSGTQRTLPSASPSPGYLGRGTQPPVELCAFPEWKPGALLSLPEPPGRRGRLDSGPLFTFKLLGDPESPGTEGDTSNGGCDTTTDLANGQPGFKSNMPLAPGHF
Experiment: In vitro functional assay, isolated spleen, phenylepinephrine contraction
Assay type: cell-based
Conditions: read-out: α Adrenoceptor Subtype (pKB) α1B (converted)
How it was run: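 Rat aorta, spleen and prostate strips from urethane-anaesthetised male Wistar rats in Krebs-Henseleit at 37 °C (95% O2/5% CO2), 2 g or 1 g resting tension, 2 h equilibration. Norepinephrine (aorta) or phenylephrine (spleen, prostate) contraction curves run without and with compound at […]; antagonist affinity given as pKB.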

**Q.** With CC(C)Oc1ccccc1N1CCN(CCCN2C(=O)C3CC(O)C(O)CC3C2=O)CC1 (stereo not shown) [Compound No. 23, 2-[3-{4-(2-Isopropoxyphenyl)piperazin-1-yl}propyl]-5,6-dihydroxy-3a,4,5,6,7,7a, hexahydro-1H-isoindole-1,3(2H)-dione-hydrochloride] as the compound, how does the Kb read?
**A.** 7.41 nM
